# System: HT-1080 cells
# Assay: Inhibition of erastin (10 μM)-induced death in HT-1080 cells (Alamar Blue)
# Type: cell-based, human
# Conditions: HT-1080, erastin (10 μM)
# Protocol: Cell viability was typically assessed in 384-well format by Alamar Blue (Invitrogen) fluorescence (ex/em 530/590) measured on a Victor3 platereader (Perkin Elmer, Waltham, Mass.). In some experiments, Trypan Blue dye exclusion counting was performed using an automated cell counter (ViCell, Beckman-Coulter Inc., Brea, Calif.). Cell viability in test conditions is reported as a percentage relative to the negative control treatment.
# The ability of various compounds disclosed herein to inhibit death in erastin (10 μM)-treated HT-1080 cells were tested. Cell viability was assessed by Alamar Blue. EC50 values (nM) were computed from dose response curves.
# HT-1080 cells are cultured in DMEM containing 10% fetal bovine serum, 1% supplemented non-essential amino acids and 1% pen/strep mixture (Gibco) and maintained in a humidified environment at 37° C. with 5% CO2 in a tissue culture incubator. 1,000 HT-1080 cells are seeded per well in duplicate 384-well plates (Corning) using a BioMek FX liquid handling robot (Beckman Coulter). The next day, the medium is replaced with 36 μL of medium containing 10 μM erastin with 4 μL of medium containing a dilution series (previously prepared) of DMSO, Fer-1 (positive control) or Fer-1 analogs. 24 hours later, 10 μL Alamar Blue (Invitrogen) cell viability solution is added to the growth media to a final concentration of 10%. Cells are incubated a further 6 hours and then the Alamar Blue fluorescence intensity recorded using a Victor 3 platereader (PerkinElmer)(ex/em 530/590). All experiments are performed at least twice and the background (no cells)-subtracted Alamar Blue values for each combination are averaged between replicates.
row,Structure (SMILES),potency compared with Fer-1
1,"CCOC(=O)c1ccc(NC2CCCCC2)c(NCc2ccncc2)c1 [SRS12-45, ethyl 4-(cyclohexylamino)-3-((pyridin-4-ylmethyl)amino)-benzoate]",more potent than Fer-1

# Same assay, conditions: Homo sapiens, HT-1080, SI Table 2, analogs with various hydrophobic moieties; read-out: EC50
row,Structure (SMILES),EC50
1,"CCOC(=O)c1ccc(Nc2ccccc2)c(N)c1 [SRS8-42, ethyl 3-amino-4-(phenylamino)benzoate]",200 nM
2,"CCOC(=O)c1ccc(NC2CCC(C)CC2)c(N)c1 (stereo not drawn) [SRS8-48, ethyl 3-amino-4-(4-methylcyclohexylamino)benzoate]",90 nM
3,"CCOC(=O)c1ccc(NC2CCCCCCC2)c(N)c1 [SRS8-70, ethyl 3-amino-4-(cyclooctylamino)benzoate]",80 nM
4,"CCCCCCCCNc1ccc(C(=O)OCC)cc1N [SRS8-94, ethyl 3-amino-4-(octylamino)benzoate]",80 nM
5,"CCOC(=O)c1ccc(NC2CCCCCCCCCCC2)c(N)c1 [SRS9-06, ethyl 3-amino-4-(cyclododecylamino)benzoate]",70 nM

# Same assay, conditions: Homo sapiens, HT-1080, SI Table 3, cyclic amines bearing heteroatoms; read-out: EC50
row,Structure (SMILES),EC50
1,"CCOC(=O)c1ccc(NC2CCC(NC(=O)OC(C)(C)C)CC2)c(N)c1 (stereo not drawn) [SRS8-46, ethyl 3-amino-4-(4-(tert-butoxycarbonylamino)cyclohexyl-amino)benzoate]",515 nM
2,"CCOC(=O)c1ccc(NC2CCN(C(=O)OC(C)(C)C)CC2)c(N)c1 [SRS8-47, tert-butyl 4-(2-amino-4-(ethoxycarbonyl)phenylamino)-piperidine-1-carboxylate]",710 nM
3,"CCOC(=O)c1ccc(NC2CCC(F)(F)CC2)c(N)c1 [SRS8-52, ethyl 3-amino-4-(4,4-difluorocyclohexylamino)benzoate]",650 nM
4,"CCOC(=O)c1ccc(NC2CCN(C(=O)OCC)CC2)c(N)c1 [SRS8-54, ethyl 4-(2-amino-4-(ethoxycarbonyl)phenylamino)piperidine-1-carboxylate]",2500 nM
5,"CCOC(=O)c1ccc(NC2CCC(N)CC2)c(N)c1 (stereo not drawn) [SRS8-80, ethyl 3-amino-4-(4-aminocyclohexylamino)benzoate]",380 nM

# Same assay, conditions: Homo sapiens, HT-1080, SI Table 4, various R3 substitutions
row,Structure (SMILES),EC50
1,"NCCOCCOC(=O)c1ccc(NC2CCCCC2)c(N)c1 [SRS8-43, 2-(2-aminoethoxy)ethyl 3-amino-4-(cyclohexylamino)benzoate]",420 nM

# Same assay, conditions: Homo sapiens, HT-1080, SI Table 4, various R3 substitutions; read-out: EC50
row,Structure (SMILES),EC50
1,"CC(C)(C)OC(=O)NCCOCCOC(=O)c1ccc(NC2CCCCC2)c(N)c1 [SRS8-37, 2-(2-(tert-butoxycarbonylamino)ethoxy)ethyl 3-amino-4-(cyclohexylamino)benzoate]",160 nM
2,"COC(=O)c1ccc(NC2CCCCC2)c(N)c1 [SRS8-61, methyl 3-amino-4-(cyclohexylamino)benzoate]",150 nM
3,"Nc1ccccc1NC1CCCCC1 [SRS8-75, N1-cyclohexylbenzene-1,2-diamine]",330 nM
4,"CC(C)(C)OC(=O)c1ccc(NC2CCCCCCC2)c(N)c1 [SRS8-87, tert-butyl 3-amino-4-(cyclooctylamino)benzoate]",90 nM
5,"CCCCCCCCCCOC(=O)c1ccc(NC2CCCCC2)c(N)c1 [SRS12-29, decyl 3-amino-4-(cyclohexylamino)benzoate]",76 nM
6,"Nc1cc(C(=O)OCCN2CCOCC2)ccc1NC1CCCCC1 [SRS12-47, 2-morpholinoethyl 3-amino-4-(cyclohexylamino)benzoate]",660 nM

# Same assay, conditions: Homo sapiens, HT-1080, SI Table 5; read-out: EC50
row,Structure (SMILES),EC50
1,"CCOC(=O)c1ccc(NC2CCCCCCC2)c(N)c1 [SRS8-70, ethyl 3-amino-4-(cyclooctylamino)benzoate]",69 nM
2,"CCOC(=O)c1ccc(NC2CCCCCCC2)c(NC(=O)OC(C)(C)C)c1 [SRS8-91, ethyl 3-(tert-butoxycarbonylamino)-4-(cyclooctylamino)-benzoate]",> 10000 nM
3,"CCCCCCCCNc1ccc(C(=O)OCC)cc1N [SRS8-94, ethyl 3-amino-4-(octylamino)benzoate]",80 nM
4,"CCOC(=O)c1ccc(NC2CCCCCCC2)c(N(C)C)c1 [SRS9-01, ethyl 4-(cyclooctylamino)-3-(dimethylamino)benzoate]",3000 nM
5,"CCOC(=O)c1ccc(NC2CCCCCCC2)c(NC)c1 [SRS9-14, ethyl 4-(cyclooctylamino)-3-(methylamino)benzoate]",70 nM
6,"CCOC(=O)c1ccc(NC2CCCCC2)c(NC(=O)OCc2ccccc2)c1 [SRS11-89, ethyl 3-(benzyloxycarbonylamino)-4-(cyclohexylamino)-benzoate]",> 10000 nM
7,"CCOC(=O)c1ccc(NC2CCCCC2)c(NC(=O)OC)c1 [SRS11-97, ethyl 4-(cyclohexylamino)-3-(methoxycarbonylamino)benzoate]",> 10000 nM
8,"CCOC(=O)c1ccc(NC2CCCCC2)c(NC(C)=O)c1 [SRS11-98, ethyl 4-(cyclohexylamino)-3-ethanamidobenzoate]",> 10000 nM
9,"CCCCCCCCN(CCCCCCCC)c1ccc(C(=O)OCC)cc1N [SRS12-12, ethyl 3-amino-4-(dioctylamino)benzoate]",15300 nM

# Same assay, conditions: Homo sapiens, HT-1080, SI Table 6; read-out: EC50
row,Structure (SMILES),EC50
1,"CCOC(=O)c1ccc(NC2CCCCC2)c(NCc2ccc(F)cc2)c1 [SRS12-33, ethyl 4-(cyclohexylamino)-3-((4-fluorobenzyl)amino)benzoate]",50 nM
2,"CCOC(=O)c1ccc(NC2CCCCC2)c(NCc2ccc(C)cc2)c1 [SRS12-34, ethyl 4-(cyclohexylamino)-3-((4-methylbenzyl)amino)benzoate]",40 nM
3,"CCOC(=O)c1ccc(NC2CCCCC2)c(NCc2ccc(Br)cc2)c1 [SRS12-35, ethyl 3-((4-bromobenzyl)amino)-4-(cyclohexylamino)benzoate]",44 nM
4,"CCOC(=O)c1ccc(NC2CCCCC2)c(NCc2ccc([N+](=O)[O-])cc2)c1 [SRS12-36, ethyl 4-(cyclohexylamino)-3-((4-nitrobenzyl)amino)benzoate]",36 nM
5,"CCOC(=O)c1ccc(NC2CCCCC2)c(NCc2ccc(OC)cc2)c1 [SRS12-43, ethyl 4-(cyclohexylamino)-3-((4-methoxybenzyl)amino)-benzoate]",69 nM
6,"CCOC(=O)c1ccc(NC2CCCCC2)c(NCc2ccc(C(F)(F)F)cc2)c1 [SRS12-48, ethyl 4-(cyclohexylamino)-3-(4-(trifluoromethyl)benzylamino)-benzoate]",46 nM

# Same assay, conditions: Homo sapiens, HT-1080, SI Table 7; read-out: EC50
row,Structure (SMILES),EC50
1,"CCOC(=O)c1ccc(NC2CCC(C(C)(C)C)CC2)c(NCc2ccccc2)c1 (single isomer, unassigned) [SRS13-29, ethyl 3-(benzylamino)-4-(4-tert-butylcyclohexylamino)benzoate]",83 nM
2,"CCOC(=O)c1ccc(NC2CCCCC2)c(NCc2ccc(OC(C)=O)cc2)c1 [Compound 4MO43, ethyl 4-(cyclohexylamino)-3-(4-(ethanoyloxy)benzylamino)-benzoate]",47 nM
3,"CCOC(=O)c1ccc(NC2CCCCC2)c(NCc2ccncc2)c1 [SRS12-45, ethyl 4-(cyclohexylamino)-3-((pyridin-4-ylmethyl)amino)-benzoate]",25 nM
4,"CCOC(=O)c1ccc(NC2CCCCC2)c(NCc2ccccn2)c1 [SRS12-46, ethyl 4-(cyclohexylamino)-3-(pyridin-2-ylmethylamino)-benzoate]",33 nM

# Same assay, conditions: SI Table 2, analogs with various hydrophobic moieties; read-out: EC50
row,Structure (SMILES),EC50
1,"CCOC(=O)c1ccc(NC2CCC(C(C)(C)C)CC2)c(N)c1 (single isomer, unassigned) [SRS13-10_F1, Ethyl 3-amino-4-(4-tert-butylcyclohexyl-amino)benzoate]",44 nM
2,"CCOC(=O)c1ccc(NC2CCC(C(C)(C)C)CC2)c(N)c1 (single isomer, unassigned) [SRS13-10_F2, Ethyl 3-amino-4-(4-tert-butylcyclohexyl-amino)benzoate]",13 nM
3,CCOC(=O)c1ccc(NC2CCCC2)c(N)c1 [SRS8-73],120 nM
4,CCOC(=O)c1ccc(NC2CCCCCC2)c(N)c1 [SRS8-90],130 nM

# Same assay, conditions: SI Table 3, cyclic amines bearing heteroatoms; read-out: EC50
row,Structure (SMILES),EC50
1,CCOC(=O)c1ccc(NC2CCOCC2)c(N)c1 [SRS8-41],1450 nM
2,CCOC(=O)c1ccc(NN2CCN(C)CC2)c(N)c1 [SRS8-53],3600 nM

# Same assay, conditions: SI Table 8; read-out: EC50
row,Structure (SMILES),EC50
1,CCOC(=O)c1ccc(Cl)c(N)c1 [SRS8-62],> 10000 nM

# Same assay, conditions: added up to 6 hours after erastin
row,Structure (SMILES),protection when added after erastin
1,"c1ccc(-c2ccccn2)nc1 [2,2-bipyridyl, reference compound]",substantial protection from death

# Same assay, conditions: erastin-treated HT-1080 cells
row,Structure (SMILES),prevention of erastin-induced death
1,"NOCC(=O)O [AOA, aminooxyacetic acid, reference compound]",rescued both HT-1080 and BJeLR cells from erastin-induced ferroptosis
2,"CC(=O)OCOC(=O)CN(CC(=O)OCOC(C)=O)c1ccccc1OCCOc1ccccc1N(CC(=O)OCOC(C)=O)CC(=O)OCOC(C)=O [BAPTA-AM, reference compound]",had no effect on erastin-induced death
3,"O=C(O)C(Cl)Cl [DCA, dichloroacetic acid, reference compound]",had no effect on erastin-induced ferroptosis
4,"COC(=O)CCC(=O)C(=O)OC [DMK, dimethyl alpha ketoglutarate, reference compound]",the lethality of erastin was restored
5,"O=C(O)CN(CCOCCOCCN(CC(=O)O)CC(=O)O)CC(=O)O [EGTA, reference compound]",had no effect on erastin-induced death
6,"Cc1ccc(N(CC(=O)O)CC(=O)O)c(OCCOc2cc3cc(-c4ncc(C(=O)O)o4)oc3cc2N(CC(=O)O)CC(=O)O)c1 [Fura-2, reference compound]",had no effect on erastin-induced death

# Source: patent US11192849B2, “Compounds, compositions, and methods for modulating ferroptosis and treating excitotoxic disorders” (THE TRUSTEES OF COLUMBIA UNIVERSITY IN THE CITY OF NEW YORK, priority 2013, dated 2021)
